Tests used:
barnyardgrass [1] = test: Test C preemergence; format: in vivo, Echinochloa crus-galli; details: for Barnyardgrass plant response rating: preemergence; for Plant response rating, Barnyardgrass: Preemergence, 31 g ai/ha, scale 0 to 100, 0 no effect, 100 complete control
Outline: (§1)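 Visual ratings on a 0–100 scale (100 = complete control) were made versus untreated controls after 13–15 greenhouse days. Chemicals in a surfactant-containing non-phytotoxic solvent were applied either preemergence to seeds in loam–sand soil or postemergence to 1- to 4-leaf plants 2–18 cm tall.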

pigweed [2] = test: Test C postemergence; format: in vivo, Amaranthus retroflexus
Outline: as §1

morningglory = test: Test C postemergence; format: in vivo, Ipomoea coccinea
Outline: as §1

wheat, winter = test: Test C preemergence; format: in vivo, Triticum aestivum; details: for Wheat plant response rating: preemergence
Outline: as §1

barnyardgrass [3] = test: Test B flooded paddy test; format: in vivo, Echinochloa crus-galli; details: Flood, 250 g ai/ha; 0 to 100 scale where 0 is no effect and 100 is complete control
Outline: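 Compound added straight to paddy water, with pots kept flooded 3 cm above soil, on plants grown to the 2-leaf stage. Visual scoring 0-100 (100 = complete control) against untreated controls after 13 to 15 greenhouse days.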

Italian ryegrass = test: Test C postemergence; format: in vivo, Lolium multiflorum
Outline: as §1

pigweed [4] = test: Test A postemergence; format: in vivo, Amaranthus retroflexus
Outline: (§2)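 Scoring: eye-based comparison with untreated controls, 0 for no effect through 100 for complete control, at about day 10. Treatments: directed soil spray preemergence; foliar spray postemergence on 2–10 cm plants at the one- to two-leaf stage. Medium: loam soil with sand.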

lambsquarters = test: Test C preemergence; format: in vivo, Chenopodium album; details: for Lambsquarters plant response rating: preemergence
Outline: as §1

wheat = test: Test A postemergence; format: in vivo, Triticum aestivum
Outline: as §2

kochia = test: Test C postemergence; format: in vivo, Kochia scoparia; details: for Kochia plant response rating / Plant response rating, Kochia: scale 0 to 100 (0 no effect, 100 complete control)
Outline: as §1

giant foxtail = test: Test A preemergence; format: in vivo, Setaria faberii; details: for Plant response rating, Foxtail, Giant: 125 g ai/ha
Outline: as §2

[5] = 16 g ai/ha, scale 0 to 100 (0 no effect, 100 complete control)
[6] = 62 g ai/ha, scale 0 (no effect) to 100 (complete control)
[7] = 125 g ai/ha, scale 0 (no effect) to 100 (complete control)
[8] = 16 g ai/ha, postemergence, 0 is no effect, 100 is complete control
[9] = 31 g ai/ha, postemergence, visual rating, scale 0 to 100 (0 no effect, 100 complete control), 13 to 15 days
[10] = 125 g ai/ha, postemergence, visual rating, scale 0 to 100 (0 no effect, 100 complete control)
[11] = Postemergence, 62 g ai/ha, scale 0 to 100 (0 no effect, 100 complete control)
[12] = 1000 g ai/ha, 0 to 100 scale, 0 no effect, 100 complete control
[13] = 125 g ai/ha, postemergence, visual rating
[14] = 125 g ai/ha, 0 to 100 scale where 0 is no effect and 100 is complete control
[15] = 500 g ai/ha, 0 to 100 scale where 0 is no effect and 100 is complete control
[16] = 0 to 100 scale where 0 is no effect and 100 is complete control
[17] = Postemergence, 31 g ai/ha, scale 0 to 100 (0 no effect, 100 complete control), 13 to 15 days
[18] = Preemergence, 31 g ai/ha, scale 0 to 100, 0 no effect, 100 complete control

| Compound | Barnyardgrass plant response rating (barnyardgrass [1]; [5]) | Barnyardgrass plant response rating (barnyardgrass [1]; [6]) | Barnyardgrass plant response rating (barnyardgrass [1]; [7]) | Plant response rating, Barnyardgrass (barnyardgrass [1]) | Plant response rating (0 to 100), Pigweed (pigweed [2]; [8]) | Plant response rating, Pigweed (pigweed [2]; [10]) | Plant response rating, Pigweed (pigweed [2]; [11]) | Plant response rating (0 to 100), Morningglory (morningglory; [8]) | Plant response rating, Morningglory (morningglory; [10]) | Plant response rating, Morningglory (morningglory; [11]) | Wheat plant response rating (wheat, winter; [5]) | Wheat plant response rating (wheat, winter; [6]) | Wheat plant response rating (wheat, winter; [7]) | Plant response rating, Barnyardgrass (barnyardgrass [3]) | Plant response rating (0 to 100), Ryegrass, Italian (Italian ryegrass; [8]) | Plant response rating, Ryegrass, Italian (Italian ryegrass; [10]) | Plant response rating, Ryegrass, Italian (Italian ryegrass; [11]) | Lambsquarters plant response rating (lambsquarters; [6]) | Lambsquarters plant response rating (lambsquarters; [7]) | Plant response rating, Kochia (kochia; Postemergence, 62 g ai/ha) | further results |
| --- | --- | --- | --- | --- | --- | --- | --- | --- | --- | --- | --- | --- | --- | --- | --- | --- | --- | --- | --- | --- | --- |
| FCc1cn(-c2c(F)cccc2Oc2ncc(Cl)cn2)nn1 [Compound 154] | 5 | 70 | 100 | 25 | 25 | 75 | 60 | 55 | 80 | 65 | 0 | 0 | 5 | 20 | 0 | 0 | 0 | 90 | 100 | 80 | Pigweed plant response rating (pigweed [2]; [9]): 30; Morningglory plant response rating (morningglory; [9]): 65; Ryegrass, Italian plant response rating (Italian ryegrass; [9]): 0; Plant response rating, Pigweed (pigweed [4]; [12]): 100; Lambsquarters plant response rating (lambsquarters; [5]): 70; Plant response rating, Wheat (wheat; [12]): 80; Plant response rating (0 to 100), Kochia (kochia; [8]): 50; Kochia plant response rating (kochia; 31 g ai/ha, postemergence, visual rating, 13 to 15 days): 50; Plant response rating, Kochia (kochia; [13]): 80; Foxtail, Giant plant response rating (giant foxtail; 1000 g ai/ha, 0 to 100 scale, 0 no effect, 100 complete control, approx. 10 days): 100 |
| Cc1cnc(Oc2cccc(C#N)c2-n2cc(I)cn2)nc1 [Compound 136] | 0 | 60 | 100 | 10 | 45 | 55 | 55 | 5 | 40 | 50 | 0 | 0 | 0 | 20 | 0 | 0 | 0 | 80 | 100 | 60 | Pigweed plant response rating (pigweed [4]; [14]): 80; Plant response rating, Pigweed (pigweed [4]; [15]): 100; Wheat plant response rating (wheat; [14]): 0; Plant response rating, Wheat (wheat; [15]): 50; Plant response rating (0 to 100), Kochia (kochia; [8]): 5; Plant response rating, Kochia (kochia; [13]): 70; Plant response rating, Foxtail, Giant (giant foxtail; [16]): 60; Foxtail, Giant plant response rating (giant foxtail; [15]): 100 |
| N#Cc1cccc(Oc2ncc(Br)cn2)c1-n1cc(I)cn1 [Compound 88] | 5 | 35 | 95 | 5 |  |  | 85 |  |  | 85 | 0 | 0 | 5 | 0 |  |  | 10 | 100 | 100 | 95 | Plant response rating (0 to 100), Pigweed (pigweed [2]; 125 g ai/ha, postemergence): 90; Plant response rating, Pigweed (pigweed [2]; [17]): 85; Plant response rating (0 to 100), Morningglory (morningglory; 125 g ai/ha, postemergence): 95; Plant response rating, Morningglory (morningglory; [17]): 90; Plant response rating, Wheat (wheat, winter; [18]): 0; Plant response rating (0 to 100), Ryegrass, Italian (Italian ryegrass; 125 g ai/ha, postemergence): 0; Plant response rating, Ryegrass, Italian (Italian ryegrass; [17]): 5; Plant response rating, Pigweed (pigweed [4]; [14]): 100; Plant response rating, Pigweed (pigweed [4]; [15]): 100; Lambsquarters plant response rating (lambsquarters; [5]): 70; Plant response rating, Lambsquarters (lambsquarters; [18]): 100; Plant response rating, Wheat (wheat; [14]): 0; Plant response rating, Wheat (wheat; [15]): 50; Kochia plant response rating (kochia; 16 g ai/ha, postemergence, visual rating, 13 to 15 days): 90; Plant response rating (0 to 100), Kochia (kochia; 125 g ai/ha, postemergence): 100; Plant response rating, Kochia (kochia; Postemergence, 31 g ai/ha, 13 to 15 days): 95; Plant response rating, Foxtail, Giant (giant foxtail; [16]): 100; Foxtail, Giant plant response rating (giant foxtail; 500 g ai/ha, 0 to 100 scale, 0 no effect, 100 complete control, approx. 10 days): 100 |
